The target in assay [1] is T1, ASH1L (h) bromodomain (Homo sapiens, UniProt Q9NR48).
T1 construct: ASH1L (h) bromodomain
The assay is described as follows: Epigenetic binding assay, Bromodomain.

The target of assay [2] is T2, KAT2A (GCN5L2) (h) bromodomain (Homo sapiens, UniProt Q92830).
T2 construct: Bromodomain
T2 sequence (Q92830 728-832 limits assumed): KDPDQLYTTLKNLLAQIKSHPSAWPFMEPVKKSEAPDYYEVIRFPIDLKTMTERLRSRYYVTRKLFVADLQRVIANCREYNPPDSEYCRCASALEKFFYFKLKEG
Description: Epigenetic binding assay, Bromodomain. The conditions noted are these: Table 4; read-out: Reference IC50.

For assay [3], the target named is T3, PCAF (h) bromodomain (Homo sapiens, UniProt Q92831).
T3 construct: Bromodomain
T3 sequence (Q92831 723-827 limits assumed): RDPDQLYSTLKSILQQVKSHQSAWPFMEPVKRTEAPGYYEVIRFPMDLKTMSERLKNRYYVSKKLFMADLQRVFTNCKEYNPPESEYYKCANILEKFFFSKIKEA
Description: Epigenetic binding assay, Bromodomain. The conditions noted are these: Table 4; read-out: Reference IC50.

The target in assay [4] is T4, ATAD2A (h) bromodomain (Homo sapiens, UniProt Q6PL18).
T4 construct: Bromodomain
T4 sequence (Q6PL18 980-1092 limits assumed): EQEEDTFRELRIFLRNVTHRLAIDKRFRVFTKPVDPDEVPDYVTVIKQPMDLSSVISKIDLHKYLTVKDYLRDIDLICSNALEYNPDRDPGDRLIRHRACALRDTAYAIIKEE
The assay is described as follows: Epigenetic binding assay, Bromodomain. The conditions noted are these: Table 4; read-out: Reference IC50.

Assay [5] deals with T1, ASH1L (h) bromodomain. The following applies: ligand biotin-H4 di acetyl Lys 5/8 75 nM; 30 min/RT; AlphaScreen; read-out: Reference IC50; cited from earlier work.
Assay [6] deals with T2, KAT2A (GCN5L2) (h) bromodomain. The following applies: ligand biotin-H4 tetra acetyl Lys 5/8/12/16 30 nM; 15 min/RT; AlphaScreen; read-out: Reference IC50; cited from earlier work.
Assay [7] concerns the target T3, PCAF (h) bromodomain. The conditions noted are these: ligand biotin-H4 tetra acetyl Lys 5/8/12/16 100 nM; 30 min/RT; AlphaScreen; read-out: Reference IC50; cited from earlier work.
For assay [8], the target named is T4, ATAD2A (h) bromodomain. The following applies: ligand biotin-H4 tetra acetyl Lys 5/8/12/16 100 nM; 30 min/RT; AlphaScreen; read-out: Reference IC50; cited from earlier work.
The target of assay [9] is T5, Sirtuin 6 (h) (Homo sapiens, UniProt Q8N6T7). The assay is described as follows: Epigenetic enzyme assay, Sirtuins. The following applies: Table 10; read-out: Reference IC50. It is filed as biochemical.
Assay [10] deals with T5, Sirtuin 6 (h). The following applies: reference compound; Fluorogenic HDAC 50 μM; 180 min/RT; cited from earlier work.
In assay [11] the target is T6, GCN5L2(h) (Homo sapiens, UniProt Q92830). Description: Epigenetic enzyme assay, Histone acetyltransferases (HATs). It is filed as biochemical. The conditions noted are these: Table 10; read-out: Reference IC50.
Assay [12] deals with T6, GCN5L2(h). The following applies: reference compound; biotin-H3K27me3 50 nM; 10 min/RT; LANCE; cited from earlier work.
Assay [13] has as its target T7, Sirtuin 7 (h) (Homo sapiens, UniProt Q9NRC8).
T7 sequence (Q9NRC8 1-400): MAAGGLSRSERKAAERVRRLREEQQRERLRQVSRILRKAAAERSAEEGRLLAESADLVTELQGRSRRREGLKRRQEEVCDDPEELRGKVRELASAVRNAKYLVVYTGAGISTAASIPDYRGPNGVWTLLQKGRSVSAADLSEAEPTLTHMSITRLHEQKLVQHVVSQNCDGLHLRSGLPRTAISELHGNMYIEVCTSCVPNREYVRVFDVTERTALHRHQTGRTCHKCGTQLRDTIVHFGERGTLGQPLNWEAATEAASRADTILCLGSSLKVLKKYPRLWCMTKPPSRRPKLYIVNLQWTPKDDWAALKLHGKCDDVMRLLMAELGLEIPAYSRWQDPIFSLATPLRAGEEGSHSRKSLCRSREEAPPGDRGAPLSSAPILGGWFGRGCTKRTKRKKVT
Description: Epigenetic enzyme assay, Sirtuins. Type of assay: biochemical. The conditions noted are these: Table 10; read-out: Reference IC50.

Assay [14] addresses T7, Sirtuin 7 (h). The conditions noted are these: reference compound; fluorogenic HDAC 25 μM; 60 min/37° C.; cited from earlier work.
The target in assay [15] is T8, FBXL10 (h) (Homo sapiens, UniProt Q8NHM5).
T8 sequence (Q8NHM5 1-1336): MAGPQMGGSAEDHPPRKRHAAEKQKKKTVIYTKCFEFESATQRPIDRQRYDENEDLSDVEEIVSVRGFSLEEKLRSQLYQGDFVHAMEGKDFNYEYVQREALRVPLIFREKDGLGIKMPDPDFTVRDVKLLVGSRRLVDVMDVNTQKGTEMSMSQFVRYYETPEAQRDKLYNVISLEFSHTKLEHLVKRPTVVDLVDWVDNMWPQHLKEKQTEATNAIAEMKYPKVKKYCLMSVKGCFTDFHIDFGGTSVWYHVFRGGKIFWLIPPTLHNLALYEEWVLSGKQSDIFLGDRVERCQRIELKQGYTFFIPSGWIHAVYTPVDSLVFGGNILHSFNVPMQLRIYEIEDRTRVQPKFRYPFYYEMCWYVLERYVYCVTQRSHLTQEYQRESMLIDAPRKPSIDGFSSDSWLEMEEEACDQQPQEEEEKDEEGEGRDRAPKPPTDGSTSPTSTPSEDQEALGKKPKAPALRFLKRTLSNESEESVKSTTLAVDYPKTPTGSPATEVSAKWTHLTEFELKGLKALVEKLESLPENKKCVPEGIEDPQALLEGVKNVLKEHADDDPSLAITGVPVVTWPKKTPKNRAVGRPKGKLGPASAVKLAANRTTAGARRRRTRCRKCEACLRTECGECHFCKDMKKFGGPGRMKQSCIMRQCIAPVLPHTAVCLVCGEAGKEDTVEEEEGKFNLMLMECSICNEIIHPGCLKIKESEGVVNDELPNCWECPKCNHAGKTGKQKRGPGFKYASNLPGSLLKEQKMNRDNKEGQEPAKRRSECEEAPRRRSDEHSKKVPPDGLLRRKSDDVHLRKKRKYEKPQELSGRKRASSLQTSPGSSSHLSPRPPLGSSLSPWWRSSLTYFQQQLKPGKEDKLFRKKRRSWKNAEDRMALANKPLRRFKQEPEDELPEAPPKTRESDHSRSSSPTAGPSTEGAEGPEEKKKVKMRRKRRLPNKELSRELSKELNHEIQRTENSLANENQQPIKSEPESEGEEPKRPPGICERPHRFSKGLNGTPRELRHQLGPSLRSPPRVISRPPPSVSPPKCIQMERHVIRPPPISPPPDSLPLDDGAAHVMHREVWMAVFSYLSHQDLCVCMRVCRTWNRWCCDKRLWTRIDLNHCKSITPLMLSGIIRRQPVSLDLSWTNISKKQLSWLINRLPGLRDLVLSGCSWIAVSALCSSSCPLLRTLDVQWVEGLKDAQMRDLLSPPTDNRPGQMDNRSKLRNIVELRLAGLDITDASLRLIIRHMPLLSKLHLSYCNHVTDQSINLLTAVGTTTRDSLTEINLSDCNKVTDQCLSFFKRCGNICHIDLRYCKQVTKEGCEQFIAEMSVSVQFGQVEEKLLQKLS
Description: Epigenetic enzyme assay, Demethylases (KDMs). Type of assay: biochemical. The following applies: read-out: Reference IC50.

The target in assay [16] is T9, JARID1A (h) (Homo sapiens, UniProt P29375). Description: Epigenetic enzyme assay, Demethylases (KDMs). Type of assay: biochemical.
Assay [17] concerns the target T10, JMJD2B (h) (Homo sapiens, UniProt O94953).
T10 sequence (O94953 1-1096): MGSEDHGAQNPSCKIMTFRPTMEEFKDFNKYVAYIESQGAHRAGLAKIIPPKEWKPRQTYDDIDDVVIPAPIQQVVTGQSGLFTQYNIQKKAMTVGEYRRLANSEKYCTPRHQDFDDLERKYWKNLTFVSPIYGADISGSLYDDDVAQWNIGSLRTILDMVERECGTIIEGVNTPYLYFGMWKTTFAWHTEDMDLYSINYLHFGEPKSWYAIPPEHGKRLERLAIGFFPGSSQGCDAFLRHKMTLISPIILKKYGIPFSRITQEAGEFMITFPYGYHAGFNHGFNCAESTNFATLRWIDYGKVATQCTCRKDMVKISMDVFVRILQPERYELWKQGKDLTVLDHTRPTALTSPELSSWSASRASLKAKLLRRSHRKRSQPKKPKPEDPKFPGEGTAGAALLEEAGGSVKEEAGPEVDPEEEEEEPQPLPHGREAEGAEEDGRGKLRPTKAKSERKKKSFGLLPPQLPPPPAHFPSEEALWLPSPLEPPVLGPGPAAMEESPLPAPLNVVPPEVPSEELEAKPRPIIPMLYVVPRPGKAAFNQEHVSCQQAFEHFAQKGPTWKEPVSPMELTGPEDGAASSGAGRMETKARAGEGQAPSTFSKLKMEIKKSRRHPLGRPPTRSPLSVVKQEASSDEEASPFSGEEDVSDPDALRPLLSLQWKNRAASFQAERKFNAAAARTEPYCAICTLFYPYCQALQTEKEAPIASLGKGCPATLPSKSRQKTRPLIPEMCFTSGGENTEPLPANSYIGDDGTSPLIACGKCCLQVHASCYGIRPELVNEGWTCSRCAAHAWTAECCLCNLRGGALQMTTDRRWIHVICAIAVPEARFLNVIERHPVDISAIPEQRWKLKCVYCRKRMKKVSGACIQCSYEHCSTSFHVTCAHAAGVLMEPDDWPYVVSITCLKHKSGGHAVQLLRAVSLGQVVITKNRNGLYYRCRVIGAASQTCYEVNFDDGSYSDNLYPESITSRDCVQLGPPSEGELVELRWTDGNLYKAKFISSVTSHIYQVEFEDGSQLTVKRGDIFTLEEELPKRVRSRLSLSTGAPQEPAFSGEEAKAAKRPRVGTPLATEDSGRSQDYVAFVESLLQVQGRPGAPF
Description: Epigenetic enzyme assay, Demethylases (KDMs). It is filed as biochemical.

Assay [18] addresses T8, FBXL10 (h). The conditions noted are these: read-out: Reference IC50; cited from earlier work.
In assay [19] the target is T9, JARID1A (h). The conditions noted are these: read-out: Reference IC50; cited from earlier work.
The target in assay [20] is T10, JMJD2B (h). The conditions noted are these: read-out: Reference IC50; cited from earlier work.

pIC50: −log10 of the molar value. Like-named read-outs stand apart in the source and are kept apart here.

T9 sequence (P29375 whole entry): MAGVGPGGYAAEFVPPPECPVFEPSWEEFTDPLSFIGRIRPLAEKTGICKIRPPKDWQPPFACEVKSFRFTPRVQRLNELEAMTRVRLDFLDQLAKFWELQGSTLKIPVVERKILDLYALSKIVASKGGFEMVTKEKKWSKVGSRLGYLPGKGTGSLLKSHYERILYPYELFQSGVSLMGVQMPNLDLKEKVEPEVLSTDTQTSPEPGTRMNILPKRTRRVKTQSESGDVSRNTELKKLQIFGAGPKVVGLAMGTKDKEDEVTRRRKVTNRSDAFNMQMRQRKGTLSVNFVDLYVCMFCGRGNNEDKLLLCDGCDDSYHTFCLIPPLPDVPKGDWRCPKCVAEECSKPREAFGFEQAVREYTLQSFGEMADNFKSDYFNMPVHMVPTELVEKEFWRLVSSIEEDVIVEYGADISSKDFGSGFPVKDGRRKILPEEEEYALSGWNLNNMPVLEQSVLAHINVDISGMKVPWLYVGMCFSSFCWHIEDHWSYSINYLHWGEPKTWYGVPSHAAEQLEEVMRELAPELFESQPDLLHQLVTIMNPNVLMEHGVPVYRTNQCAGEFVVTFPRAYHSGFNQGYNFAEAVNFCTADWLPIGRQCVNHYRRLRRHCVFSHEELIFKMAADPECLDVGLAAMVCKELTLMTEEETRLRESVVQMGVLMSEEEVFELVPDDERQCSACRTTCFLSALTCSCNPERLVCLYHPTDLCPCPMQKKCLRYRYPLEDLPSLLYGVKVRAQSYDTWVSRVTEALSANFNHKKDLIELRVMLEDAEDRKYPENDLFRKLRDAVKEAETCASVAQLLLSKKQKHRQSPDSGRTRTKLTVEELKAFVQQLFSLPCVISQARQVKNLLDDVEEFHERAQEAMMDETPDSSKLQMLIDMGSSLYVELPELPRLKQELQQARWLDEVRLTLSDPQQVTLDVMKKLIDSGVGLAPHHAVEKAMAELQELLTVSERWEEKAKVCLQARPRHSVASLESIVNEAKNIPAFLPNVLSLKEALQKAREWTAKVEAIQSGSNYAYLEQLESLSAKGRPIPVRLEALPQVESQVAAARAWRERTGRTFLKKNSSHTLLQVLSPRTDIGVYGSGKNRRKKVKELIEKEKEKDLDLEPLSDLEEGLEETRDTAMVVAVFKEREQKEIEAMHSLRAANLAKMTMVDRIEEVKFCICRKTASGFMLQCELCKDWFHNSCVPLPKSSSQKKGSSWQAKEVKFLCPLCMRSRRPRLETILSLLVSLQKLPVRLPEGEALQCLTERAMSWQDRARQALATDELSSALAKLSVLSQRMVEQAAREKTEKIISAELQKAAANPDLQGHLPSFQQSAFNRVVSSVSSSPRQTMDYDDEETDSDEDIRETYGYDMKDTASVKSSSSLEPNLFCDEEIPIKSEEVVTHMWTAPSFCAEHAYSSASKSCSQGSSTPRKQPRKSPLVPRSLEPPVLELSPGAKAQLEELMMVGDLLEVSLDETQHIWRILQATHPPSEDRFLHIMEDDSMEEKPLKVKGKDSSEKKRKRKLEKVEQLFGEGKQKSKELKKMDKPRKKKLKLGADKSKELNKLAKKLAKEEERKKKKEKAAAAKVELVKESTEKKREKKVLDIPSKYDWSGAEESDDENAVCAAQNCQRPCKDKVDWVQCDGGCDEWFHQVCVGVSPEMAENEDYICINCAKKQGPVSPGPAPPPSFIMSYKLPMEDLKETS
T5 sequence (Q8N6T7 whole entry): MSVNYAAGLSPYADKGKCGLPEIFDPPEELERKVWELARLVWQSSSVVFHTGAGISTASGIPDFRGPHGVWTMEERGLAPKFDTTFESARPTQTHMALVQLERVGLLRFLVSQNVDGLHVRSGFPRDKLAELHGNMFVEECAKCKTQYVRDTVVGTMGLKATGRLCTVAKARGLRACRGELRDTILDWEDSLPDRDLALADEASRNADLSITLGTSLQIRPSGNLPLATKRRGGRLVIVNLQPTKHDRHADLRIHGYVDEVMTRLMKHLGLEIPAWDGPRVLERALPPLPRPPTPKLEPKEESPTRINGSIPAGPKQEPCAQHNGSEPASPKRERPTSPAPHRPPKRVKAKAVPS
T6 sequence (Q92830 whole entry): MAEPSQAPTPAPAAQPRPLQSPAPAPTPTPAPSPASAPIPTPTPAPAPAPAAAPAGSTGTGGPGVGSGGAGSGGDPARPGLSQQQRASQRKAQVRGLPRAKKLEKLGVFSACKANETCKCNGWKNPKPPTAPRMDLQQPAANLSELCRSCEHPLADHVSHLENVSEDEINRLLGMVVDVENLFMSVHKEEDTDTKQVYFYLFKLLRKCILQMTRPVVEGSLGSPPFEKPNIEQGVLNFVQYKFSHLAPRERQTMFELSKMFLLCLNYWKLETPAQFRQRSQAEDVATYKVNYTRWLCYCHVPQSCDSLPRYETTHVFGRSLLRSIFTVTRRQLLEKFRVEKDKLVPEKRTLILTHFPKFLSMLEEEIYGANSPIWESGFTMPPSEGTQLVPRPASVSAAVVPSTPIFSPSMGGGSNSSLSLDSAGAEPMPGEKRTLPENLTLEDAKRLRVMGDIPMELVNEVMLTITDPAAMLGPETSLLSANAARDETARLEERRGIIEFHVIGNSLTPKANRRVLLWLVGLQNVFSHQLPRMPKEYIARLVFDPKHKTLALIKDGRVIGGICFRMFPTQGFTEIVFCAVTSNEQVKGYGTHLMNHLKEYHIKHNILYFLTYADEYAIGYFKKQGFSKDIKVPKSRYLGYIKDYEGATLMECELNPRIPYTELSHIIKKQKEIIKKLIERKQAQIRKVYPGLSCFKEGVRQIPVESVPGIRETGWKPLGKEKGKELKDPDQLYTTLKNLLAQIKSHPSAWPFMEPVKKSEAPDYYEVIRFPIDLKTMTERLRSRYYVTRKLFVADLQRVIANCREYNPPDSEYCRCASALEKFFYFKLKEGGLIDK

As to `Cc1sc2c(c1C)C(c1ccc(Cl)cc1)=N[C@@H](CC(=O)OC(C)(C)C)c1nnc(C)n1-2` [JQ-1, reference compound], the pIC50 on ASH1L (h) bromodomain [1] (Table 4, read-out: Reference IC50) was 4.86; on ASH1L (h) bromodomain [1] (Table 9, inhibition/concentration-response curve, read-out: IC50), 5.06; in [2], 4.35; at PCAF (h) bromodomain [3] it was 4.92; at ATAD2A (h) bromodomain [4], 4.15; at ASH1L (h) bromodomain [5], 4.86. For the same molecule, the values for the pIC50 (in assay [6]; at PCAF (h) bromodomain [7]; on ATAD2A (h) bromodomain [8]) were 4.35, 4.92 and 4.15, respectively.

In the case of `NC(=O)C1CCCc2c1[nH]c1ccc(Cl)cc21` (racemic) [EX-527, reference compound], the pIC50 at Sirtuin 6 (h) [9] and at Sirtuin 6 (h) [10] was 3.26 each time.

`CCCCCCCCCCCCCCCc1cccc(O)c1C(=O)O` [Anacardic Acid, reference compound]: the pIC50 on GCN5L2(h) [11] and at GCN5L2(h) [12] was 5.33 each time.

Take `O=C1c2ccccc2C(=O)c2c(NCCc3ccc(O)cc3)ccc(NCCc3ccc(O)cc3)c21` [JFD00244, reference compound]: the pIC50 on Sirtuin 7 (h) [13] and on Sirtuin 7 (h) [14] was 2.89 throughout.

Regarding `O=C(O)c1ccnc(C(=O)O)c1` [2,4 PDCA, reference compound], the pIC50 on FBXL10 (h) [15] was 6.21; on JARID1A (h) [16] (read-out: IC50), 7.00; at JARID1A (h) [16] (read-out: Reference IC50) it was 6.74; at JMJD2B (h) [17] (read-out: IC50), 7.02; on JMJD2B (h) [17] (read-out: Reference IC50), 6.85; on FBXL10 (h) [18] it was 6.21. Moreover, the negative-log IC50 (pIC50) at JARID1A (h) [19] was 6.74; at JMJD2B (h) [20], 6.85.
